Results on twelve compounds are retold here after patent US9994547B2, “Heteroarylamide inhibitors of TBK1” (Takeda Pharmaceutical Company Limited, priority 2014, dated 2018).

Full length human TBK1, sequence (Q9UHD2 whole entry): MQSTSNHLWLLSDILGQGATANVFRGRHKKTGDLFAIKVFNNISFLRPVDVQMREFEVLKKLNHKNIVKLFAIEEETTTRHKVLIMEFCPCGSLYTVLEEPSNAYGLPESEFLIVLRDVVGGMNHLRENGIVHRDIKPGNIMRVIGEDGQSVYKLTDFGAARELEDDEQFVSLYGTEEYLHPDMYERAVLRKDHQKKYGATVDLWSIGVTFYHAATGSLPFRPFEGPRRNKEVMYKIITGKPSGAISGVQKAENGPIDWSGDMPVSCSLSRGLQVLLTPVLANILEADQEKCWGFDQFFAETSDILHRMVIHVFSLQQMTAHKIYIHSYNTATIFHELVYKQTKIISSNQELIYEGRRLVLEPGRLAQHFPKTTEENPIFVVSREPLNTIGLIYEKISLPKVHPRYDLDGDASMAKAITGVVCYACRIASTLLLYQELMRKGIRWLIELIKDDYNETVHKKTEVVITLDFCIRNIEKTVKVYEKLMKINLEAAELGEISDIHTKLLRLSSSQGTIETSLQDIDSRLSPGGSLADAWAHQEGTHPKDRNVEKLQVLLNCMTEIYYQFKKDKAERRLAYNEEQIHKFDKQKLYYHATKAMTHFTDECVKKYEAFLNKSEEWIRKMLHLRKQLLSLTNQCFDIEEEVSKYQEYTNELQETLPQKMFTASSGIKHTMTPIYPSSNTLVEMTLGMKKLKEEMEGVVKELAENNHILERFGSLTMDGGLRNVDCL

The target in the experiment is Full length human TBK1 (Homo sapiens (Human), UniProt Q9UHD2). The experiment in a line: Inhibition of TBK1 Enzyme (Example A). Format: biochemical. As to conditions: -log(IC50), IC50 molar; 3 nM TBK1, 25 μM ATP, 60 min RT. A digest of the protocol:
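Full-length N-His human TBK1 from Sf9 baculovirus was tested with 11-point 2.5-fold dilutions (1% DMSO) in Hepes pH 7.4, MgCl2, EDTA, Brij, DTT. After 60 min RT and EDTA quench, microfluidic conversion was fitted and reported as pIC50.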
As to `C[C@H](Nc1cc(-c2cnc(NC(=O)C3CC3)cn2)cnc1C#N)C(=O)N(C)CCF` [Example 54, (S)-N-(5-(6-cyano-5-((1-((2-fluoroethyl)(methyl)amino)-1-oxopropan-2-yl)amino)pyridin-3-yl)pyrazin-2-yl)cyclopropanecarboxamide], the “TBK1 Inhibition (pIC50)” value is recorded as 8.0.

`C[C@H](Nc1cc(-c2cnc(NC(=O)C3CC3)cn2)cnc1C#N)C(=O)N1CCC[C@@H]1C#N` [Example 55, N-(5-(6-cyano-5-(((S)-1-((R)-2-cyanopyrrolidin-1-yl)-1-oxopropan-2-yl)amino)pyridin-3-yl)pyrazin-2-yl)cyclopropanecarboxamide]: the “TBK1 Inhibition (pIC50)” value is recorded as 7.6.

In the case of `CC[C@H](Nc1cc(-c2cnc(NC(=O)C3CC3)cn2)cnc1C#N)C(=O)N(C)CCF` [Example 56, (S)-N-(5-(6-cyano-5-((1-((2-fluoroethyl)(methyl)amino)-1-oxobutan-2-yl)amino)pyridin-3-yl)pyrazin-2-yl)cyclopropanecarboxamide], the “TBK1 Inhibition (pIC50)” value was determined as 7.7.

On to `CN(C)C(=O)[C@H](CO)Nc1cc(-c2cnc(NC(=O)C3CC3)cn2)cnc1C#N` [Example 57, (S)-N-(5-(6-cyano-5-((1-(dimethylamino)-3-hydroxy-1-oxopropan-2-yl)amino)pyridin-3-yl)pyrazin-2-yl)cyclopropanecarboxamide], for which the “TBK1 Inhibition (pIC50)” value came out at 7.2.

In the case of `CN(CC(F)F)C(=O)[C@H](CO)Nc1cc(-c2cnc(NC(=O)C3CC3)cn2)cnc1C#N` [Example 58, (S)-N-(5-(6-cyano-5-((1-((2,2-difluoroethyl)(methyl)amino)-3-hydroxy-1-oxopropan-2-yl)amino)pyridin-3-yl)pyrazin-2-yl)cyclopropanecarboxamide], the “TBK1 Inhibition (pIC50)” value came to 7.3.

Turning to `CC(C#N)NC(=O)CNc1cc(-c2cnc(NC(=O)C3CC3)cn2)cnc1C#N` (stereo not drawn) [Example 59, N-(5-(6-cyano-5-((2-((1-cyanoethyl)amino)-2-oxoethyl)amino)pyridin-3-yl)pyrazin-2-yl)cyclopropanecarboxamide], the “TBK1 Inhibition (pIC50)” value is given as 6.7.

Turning to `C[C@H](Nc1cc(-c2cnc(NC(=O)C3CC3)cn2)cnc1C#N)C(=O)N1CCO[C@@H]1C(F)(F)F` [Example 60, N-(5-(6-cyano-5-((S)-1-oxo-1-((R)-2-(trifluoromethyl)oxazolidin-3-yl)propan-2-ylamino)pyridin-3-yl)pyrazin-2-yl)cyclopropanecarboxamide], the “TBK1 Inhibition (pIC50)” value came to 7.4.

Consider `C[C@H](Nc1cc(-c2cnc(NC(=O)C3CC3)cn2)cnc1C#N)C(=O)N1CCO[C@H]1C(F)(F)F` [Example 61, N-(5-(6-cyano-5-((S)-1-oxo-1-((S)-2-(trifluoromethyl)oxazolidin-3-yl)propan-2-ylamino)pyridin-3-yl)pyrazin-2-yl)cyclopropanecarboxamide], for which the “TBK1 Inhibition (pIC50)” value turned out to be 6.0.

As to `CC(C#N)NC(=O)[C@H](C)Nc1cc(-c2cnc(NC(=O)C3CC3)cn2)cnc1C#N` (stereo partly drawn) [Example 62, N-(5-(6-cyano-5-(((2S)-1-((1-cyanoethyl)amino)-1-oxopropan-2-yl)amino)pyridin-3-yl)pyrazin-2-yl)cyclopropanecarboxamide], the “TBK1 Inhibition (pIC50)” value worked out at 6.6.

As to `N#Cc1ncc(-c2cnc(NC(=O)C3CC3)cn2)cc1NCC(=O)N1CCOCC1C#N` (stereo not drawn) [Example 63, N-(5-(6-cyano-5-((2-(3-cyanomorpholino)-2-oxoethyl)amino)pyridin-3-yl)pyrazin-2-yl)cyclopropanecarboxamide], the “TBK1 Inhibition (pIC50)” value is given as 7.2.

As for `N#Cc1ncc(-c2cnc(NC(=O)C3CC3)cn2)cc1NCC(=O)N1CCOC1C(F)(F)F` (stereo not drawn) [Example 64, N-(5-(6-cyano-5-((2-oxo-2-(2-(trifluoromethyl)oxazolidin-3-yl)ethyl)amino)pyridin-3-yl)pyrazin-2-yl)cyclopropanecarboxamide], the “TBK1 Inhibition (pIC50)” value is listed as 7.5.

Turning to `CN(CCC#N)C(=O)CNc1cc(-c2cnc(NC(=O)C3CC3)cn2)cnc1C#N` [Example 65, N-(5-(6-cyano-5-((2-((2-cyanoethyl)(methyl)amino)-2-oxoethyl)amino)pyridin-3-yl)pyrazin-2-yl)cyclopropanecarboxamide], the “TBK1 Inhibition (pIC50)” value is 6.9.
